Series [1] in a line: In Vitro Liver Microsomes Metabolic Stability Assay, mouse. The class given is in vitro ADME. The conditions noted are these: mouse liver microsomes 0.5 mg/mL, 1 μM compound, NADPH, 0 and 30 min; scale-up CLint; read-out: CLint, Mouse LM. How it is done: (§1) In Vitro Liver Microsomes Metabolic Stability Assay of Different Species
(§2) 1. The liver microsomes were stored at −80° C. prior to use.
(§3) 2. The master solution was prepared according to Table 3.
(§4) 3. 40 μL of 10 mM NADPH solution was added to each well. The final concentrations of NADPH was 1 mM. The mixture was pre-warmed at 37° C. for 5 minutes. The negative control samples were prepared by replacing NADPH solutions with 40 μL of ultra-pure H2O. The negative control was used to exclude the misleading factor that resulted from instability of chemical itself. Samples with NADPH were prepared in duplicate. Negative controls were prepared in singlet.
(§5) 4. The reaction was started with the addition of 2 μL of 200 μM control compound or test compound solutions. Verapamil was used as positive control in this study. The final concentration of test compound or control compound was 1 μM.
(§6) 5. Aliquots of 50 μL were taken from the reaction solution at 0 and 30 minutes. The reaction was stopped by the addition of 4 volumes of cold acetonitrile with Internal Standard (100 nM alprazolam, 200 nM imipramine, 200 nM labetalol and 2 μM ketoprofen). Samples were centrifuged at 3, 220 g for 40 minutes. Aliquot of 90 μL of the supernatant was mixed with 90 μL of ultra-pure H2O and then used for LC-MS/MS analysis.
(§7) Peak areas were determined from extracted ion chromatograms. The slope value, k, was determined by linear regression of the natural logarithm of the remaining percentage of the parent drug vs. incubation time curve.
(§8) The in vitro half-life (in vitro t1/2) was determined from the slope value:
(§9) Conversion of the in vitro t1/2 (min) into the in vitro intrinsic clearance (in vitro CLint, in μL/min/mg protein) was done using the following equation (mean of duplicate determinations): […]
(§10) Conversion of the in vitro t1/2 (min) into the scale-up unbound intrinsic clearance (Scale-up CLint, in mL/min/kg) was done using the following equation (mean of duplicate determinations): […]
A general note: Microsomes from liver hold many membrane-bound enzymes, among them those of drug oxidation.

Series [2] can be described thus: In Vitro Liver Microsomes Metabolic Stability Assay, rat. The class given is in vitro ADME. The conditions noted are these: rat liver microsomes 0.5 mg/mL, 1 μM compound, NADPH, 0 and 30 min; scale-up CLint; read-out: CLint, Rat LM. How it is done:
as §1, §2, §3, §4, §5, §6, §7, §8, §9, §10

Series [3] concerns the target T1, TFEB (Homo sapiens, UniProt P19484).
T1 sequence (P19484 1-476): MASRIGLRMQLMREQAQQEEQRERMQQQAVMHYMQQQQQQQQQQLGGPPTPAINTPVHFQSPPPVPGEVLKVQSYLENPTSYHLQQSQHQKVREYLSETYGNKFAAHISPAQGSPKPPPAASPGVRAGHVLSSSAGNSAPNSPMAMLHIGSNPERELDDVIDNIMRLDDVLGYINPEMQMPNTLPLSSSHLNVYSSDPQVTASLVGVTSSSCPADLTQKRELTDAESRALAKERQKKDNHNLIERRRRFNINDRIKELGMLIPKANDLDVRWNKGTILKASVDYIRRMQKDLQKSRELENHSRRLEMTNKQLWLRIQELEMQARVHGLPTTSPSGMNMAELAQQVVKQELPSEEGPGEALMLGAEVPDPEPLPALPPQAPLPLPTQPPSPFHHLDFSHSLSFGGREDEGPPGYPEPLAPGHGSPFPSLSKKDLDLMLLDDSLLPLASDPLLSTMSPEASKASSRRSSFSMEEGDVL
Put plainly: Tfeb-Translocation Assay HEK-293T-oEX-Tfeb-GFP Cell Line. The class given is cell-based. To be noted: HEK-293T-oEX-TFEB-GFP cells. How it is done: Tfeb-Translocation Assay HEK-293T-oEX-Tfeb-GFP Cell Line
• 1). Added 2×10^6 cell into a T75 flask with 15 mL DiVEM medium (with 10% FBS, 1% PS, 1×GLUTAMAX, 1×MEM NEAA, 1×HEPES Buffer Solution and 5 ug/mL blasticidin). • 2). Culturing for 48-72 hours. Cells in logarithmic growth phase were taken for experiment. The other cells were passaged as described in step 1. • 3). Seeded 1×10^4 cells/30 μL/well into 384-well plate (BD 356663). Cultured overnight at 37° C. & 5% CO2 incubator. • 4). Note: Used cells <10 passage
• 1). Compounds were firstly diluted by DMSO to the stock needed (10 mM), and aliquoted and stored at −20° C. • 2). Took one aliquot each time and made 3-fold or 2-fold dilutions as indicated, total 10 doses plus one DMSO control well in the source plate. • 3). Added 150 or 90 nL/well compounds solution to the assay plate by ECHO and incubated for 6 or 18 hours respectively at 37° C. & 5% CO2 incubator.
• 1). Added 30 uL 8% PFA into the wells and incubated 20 min at room temperature. • 2). Discarded the medium, washed the wells twice with DPBS to eliminate foam and bubbles in the well.
• 1). Diluted Hoechest-333824 in DPBS to get 2 μg/mL solution and added 30 uL/well into assay plate, incubated at room temperature for 20 mins. • 2). Discarded the supernatant, washed the wells twice with DPBS to eliminate foam and bubbles in the well. Then added DPBS 20 uL/well.
3). Scanned Plate by Operetta.
• 1). Reference compound: Torin 1 • 2). Test compounds: C1, C2, C3, C4, C5, C6. • 3). Diluted compounds in 384 LDV-dilution plate according to the dilution plate map • 4). Compounds starting concentration: Torin 1: 300 nM and Test compounds: 50 uM.
• 1). Selected all nucleus by Operetta as ‘All Cells’ • 2). Calculated the EGFP average intensity inside the Nucleus region. • 3). Selected population that the EGFP mean intensity inside the Nucleus region>background as the EGFP-positive cells • 4). Selected the Surrounding region of the nucleus and calculated the EGFP mean intensity of the region • 5). Inside the EGFP-positive cell population, selected the cells with EGFP mean intensity inside the Nucleus region/the EGFP mean intensity inside the surrounding region=1.2 (This ratio could be slightly adjusted from time to time) as the Translocation positive cell. • 6). Outputted the ratio of Translocation positive cell/EGFP-positive cells as the Translocation Positive Ratio. • 7). Each time set the ratio of DMSO group (Control Group) as ˜15% and then normalized the compound group to the DMSO group.

Setting [4] is: translocation positive cells ratio, read-out: TFEB Translocation EC50.

Each structure is given as a SMILES string. Like-named read-outs stand apart in the source and are kept apart here. A value given as a limit tells only on which side of the number the result lay.

One may read the EC50 as the concentration giving half of the maximal effect.

For the compound `Cc1nc2ccn(Cc3ccc(Cl)cc3)c(=O)c2cc1C(=O)NCc1ccc(F)cn1` [Example 51, 6-(4-chlorobenzyl)-N-((5-fluoropyridin-2-yl)methyl)-2-methyl-5-oxo-5,6-dihydro-1,6-naphthyridine-3-carboxamide], the values for the CLint scaled at 1 μM in series [1] and in series [2] were 140 mL/min/kg and 42 mL/min/kg, respectively. In series [3] (setting [4]), the EC50 was under 100 nM.

Consider `Cc1nc2ccn(Cc3ccc(F)c(F)c3)c(=O)c2cc1C(=O)NCc1ccc(F)cn1` [Example 63, 6-(3,4-difluorobenzyl)-N-((5-fluoropyridin-2-yl)methyl)-2-methyl-5-oxo-5,6-dihydro-1,6-naphthyridine-3-carboxamide], for which the EC50 in series [3] (setting [4]) is under 100 nM.

For the compound `COCCOCCOc1ccc(Cn2ccc3nc(C)c(C(=O)NCc4ccc(Cl)cn4)cc3c2=O)cc1` [Example 64, N-((5-chloropyridin-2-yl)methyl)-6-(4-(2-(2-methoxyethoxy)ethoxy)benzyl)-2-methyl-5-oxo-5,6-dihydro-1,6-naphthyridine-3-carboxamide], in series [3] (setting [4]), the EC50 lay within 1000 to 10000 nM.

`Cc1nc2ccn(Cc3ccccc3)c(=O)c2cc1C(=O)NCc1ccc(OC(C)C)cc1` [Example 67, 6-benzyl-N-(4-isopropoxybenzyl)-2-methyl-5-oxo-5,6-dihydro-1,6-naphthyridine-3-carboxamide]: the EC50 in series [3] (setting [4]) was at least 10000 nM.

With `Cc1ccc(CNC(=O)c2cc3c(=O)n(Cc4ccccc4)ccc3nc2C)cc1` [Example 68, 6-benzyl-2-methyl-N-(4-methylbenzyl)-5-oxo-5,6-dihydro-1,6-naphthyridine-3-carboxamide], the EC50 in series [3] (setting [4]) was 100 to 1000 nM. Still for that read-out and setting: next, `Cc1nc2ccn(Cc3ccccc3)c(=O)c2cc1C(=O)NCc1ccc2c(c1)OCO2` [Example 69, N-(benzo[d][1,3]dioxol-5-ylmethyl)-6-benzyl-2-methyl-5-oxo-5,6-dihydro-1,6-naphthyridine-3-carboxamide]: under 100 nM. For `Cc1ccc(CNC(=O)c2cc3c(=O)n(Cc4cccs4)ccc3nc2C)o1` [Example 70, 2-methyl-N-((5-methylfuran-2-yl)methyl)-5-oxo-6-(thiophen-2-ylmethyl)-5,6-dihydro-1,6-naphthyridine-3-carboxamide], in series [3] (setting [4]), the 50% effective concentration (EC50) is under 100 nM. For `Cc1nc2ccn(Cc3ccccc3)c(=O)c2cc1C(=O)NCc1cccs1` [Example 71, 6-benzyl-2-methyl-5-oxo-N-(thiophen-2-ylmethyl)-5,6-dihydro-1,6-naphthyridine-3-carboxamide], in series [3] (setting [4]), the EC50 was 100 to 1000 nM. Regarding `COCCn1ccc2nc(C)c(C(=O)NCc3ccc(C)o3)cc2c1=O` [Example 72, 6-(2-methoxyethyl)-2-methyl-N-((5-methylfuran-2-yl)methyl)-5-oxo-5,6-dihydro-1,6-naphthyridine-3-carboxamide], the half-maximal effective concentration (EC50) in series [3] (setting [4]) was in the range of 100 to 1000 nM. On the same count and under the same terms, as for `Cc1nc2ccn(Cc3ccccc3)c(=O)c2cc1C(=O)NCCc1ccco1` [Example 73, 6-benzyl-N-(2-(furan-2-yl)ethyl)-2-methyl-5-oxo-5,6-dihydro-1,6-naphthyridine-3-carboxamide], the figure is 1000 to 10000 nM; as for `Nc1nc2ccn(Cc3ccccc3)c(=O)c2cc1C(=O)NCc1ccccn1` [Example 74, 2-amino-6-benzyl-5-oxo-N-(pyridin-2-ylmethyl)-5,6-dihydro-1,6-naphthyridine-3-carboxamide], 1000 to 10000 nM.

`Cc1nc2ccn(Cc3ccc(Cl)c(F)c3)c(=O)c2cc1C(=O)NCc1ccccn1` [Example 75, 6-(4-chloro-3-fluorobenzyl)-2-methyl-5-oxo-N-(pyridin-2-ylmethyl)-5,6-dihydro-1,6-naphthyridine-3-carboxamide]: the EC50 in series [3] (setting [4]) is under 100 nM. Same read-out and setting: as for `Cc1nc(CNC(=O)c2cc3c(=O)n(Cc4ccc(F)c(F)c4)ccc3nc2C)co1` [Example 76, 6-(3,4-difluorobenzyl)-2-methyl-N-((2-methyloxazol-4-yl)methyl)-5-oxo-5,6-dihydro-1,6-naphthyridine-3-carboxamide], the figure is under 100 nM. Consider `COCCOCCOc1ccc(CNC(=O)c2cc3c(=O)n(Cc4ccc(Cl)cc4)ccc3nc2C)nc1` [Example 77, 6-(4-chlorobenzyl)-N-((5-(2-(2-methoxyethoxy)ethoxy)pyridin-2-yl)methyl)-2-methyl-5-oxo-5,6-dihydro-1,6-naphthyridine-3-carboxamide], for which, in series [3] (setting [4]), the concentration giving a half-maximal response (EC50) is at least 10000 nM. For the compound `Cc1nc(CNC(=O)c2cc3c(=O)n(Cc4ccc(F)cc4)ccc3nc2C)co1` [Example 78, 6-(4-fluorobenzyl)-2-methyl-N-((2-methyloxazol-4-yl)methyl)-5-oxo-5,6-dihydro-1,6-naphthyridine-3-carboxamide], in series [3] (setting [4]), the concentration giving a half-maximal response (EC50) was under 100 nM. Consider `Cc1nc(CNC(=O)c2cc3c(=O)n(Cc4cccc(F)c4)ccc3nc2C)co1` [Example 79, 6-(3-fluorobenzyl)-2-methyl-N-((2-methyloxazol-4-yl)methyl)-5-oxo-5,6-dihydro-1,6-naphthyridine-3-carboxamide], for which the concentration for a half-maximal effect (EC50) in series [3] (setting [4]) was under 100 nM.

In the case of `Cc1nc(CNC(=O)c2cc3c(=O)n(Cc4ccc(Cl)cc4)ccc3nc2C)co1` [Example 80, 6-(4-chlorobenzyl)-2-methyl-N-((2-methyloxazol-4-yl)methyl)-5-oxo-5,6-dihydro-1,6-naphthyridine-3-carboxamide], in series [3] (setting [4]), the EC50 is under 100 nM. Consider `Cc1nc(CNC(=O)c2cc3c(=O)n(Cc4cc(F)cc(F)c4)ccc3nc2C)co1` [Example 81, 6-(3,5-difluorobenzyl)-2-methyl-N-((2-methyloxazol-4-yl)methyl)-5-oxo-5,6-dihydro-1,6-naphthyridine-3-carboxamide], for which the EC50 in series [3] (setting [4]) was under 100 nM. As for `CCC(=O)N1CCN(c2ccc(-n3c(=O)ccc4cnc5ccc(-c6cnc7ccccc7c6)cc5c43)cc2C(F)(F)F)CC1` [Torin 1, reference compound], the half-maximal effective concentration (EC50) in series [3] (reference compound, read-out: EC50 of reference compound (TFEB translocation)) is 28.3 nM.
